Measurements published in PubChem BioAssay AID2305 (GlaxoSmithKline (GSK), 2010).
“And” between values parts separate entries of the source, which are not always exact repeats. Equal entries are not always repeated.

Test system: P. falciparum 3D7 growth, pLDH absorbance
Assay: P. falciparum 3D7 growth inhibition, dose response, strain 3D7 (AID 2305)

SMILES | IC50
Cc1c(CCNC(=O)CCCN2CC(C)CC(C)C2)c2ccccc2n1C (stereo not given) | 1270 nM
CN(C)C(=NCCCCCCN=C(/N=C(/N)Nc1ccc(Cl)cc1)N(C)C)/N=C(/N)Nc1ccc(Cl)cc1 | 530 nM
CCc1c(CCNCCCCCNCCc2ccc(OC)c(OC)c2CC)ccc(OC)c1OC | 1110 nM
CC(C)c1ccc(NC(=O)NCC2CCCN(CCCCCNC(=O)/C=C/c3ccc(Cl)c(Cl)c3)C2)cc1 (stereo not given) | 810 nM
CC(C)Cn1cc(C2CCN(CCN3CCC(CNC(=O)c4ccc(-c5ccc(C(F)(F)F)cc5)cc4)CC3)CC2)c2ccccc21 | 750 nM
COc1ccc(Cl)cc1N1CCN(CCCNC(=O)c2ccc(-c3nc4cc(Cl)c(F)cc4[nH]3)s2)CC1 | 310 nM
CCOc1ccc(NC(=O)c2cn3nc(-c4ccc(OCC)cc4)cc3nc2C2CCNCC2)cc1 | 510 nM
Cc1ccc2[nH]c(-c3ccc(/C=C/C(=O)NC4CCN(Cc5ccccc5)CC4)cc3)nc2c1C | 630 nM
CCNc1cc(C(=O)N[C@@H](Cc2ccccc2)[C@H](O)CNC(C)(C)CCCC(C)C)cc(N2CCCC2=O)c1 | 830 nM
COc1ccc(OC)c([C@H](O)[C@@H](C)NCc2cc(Cl)ccc2O)c1 | 380 nM
CNCCCNCc1ccc(-c2ccc(F)c(Cl)c2)o1 | 750 nM
O=C(/C=C/c1cccc(C(F)(F)F)c1)NCCCCCN1CCN(C(=O)Nc2ccc(Cl)c(Cl)c2)CC1 | 930 nM
CCN(CC)CC(O)c1cc(-c2ccc(C)cc2)nc2c(C)cc(C)cc12 (stereo not given) | 170 nM
CN1CCc2ccc(NC(=O)Nc3ccc(-c4ccccc4)cc3)cc2C1 | 510 nM
Cc1ccc2nc(C)cc(NC(=O)Nc3ccc(N(C)C)cc3)c2c1 | 540 nM
O=C(NCCN1CCCC1)c1cc(-c2ccc(Cl)c(O)c2)c(-c2ccncc2)o1 | 1630 nM
CCCCCCCN1CC[C@@H](CCCc2ccnc3ccc(OC)cc23)[C@@H](CCN)C1 | 750 nM
O=C(/C=C/c1cc(C(F)(F)F)ccc1F)N1CCC(CN2CCC(c3c[nH]c4ccccc34)CC2)CC1 | 990 nM
CC(c1cccc(S(=O)(=O)NCc2cccc(C(F)(F)F)c2)c1)N1CCC(N2CCCCC2)CC1 (stereo not given) | 690 nM
Nc1ncc(-c2ccsc2)cc1-c1nc2ccccc2[nH]1 | 850 nM
CC(Cc1ccc(C2=CCNCC2)cc1)NCC(O)c1cccc(C(F)(F)F)c1 (stereo not given) | 1570 nM
COc1cccc(-c2nn(C)c3sc(C(=O)Nc4cccnc4)cc23)c1 | 950 nM
O=C(Nc1ccc(-c2nc3ccccc3[nH]2)cc1)C1CCCN(CC2CC2)C1 (stereo not given) | 950 nM
CN1CCN(CCc2ccc(N=Cc3c(=O)[nH]c4ccc5[nH]cccc5c34)cc2)CC1 | 330 nM

SMILES | IC50
CCc1cn(CC(=O)N(CCOc2ccc(-c3ccc(C(F)(F)F)cc3)cc2)CCN(CC)CC)c(SCc2ccc(F)cc2)nc1=O | 780 nM
OC(COCc1ccc(-c2ccccc2)cc1)CN1CCCCC1 (stereo not given) | 270 nM
O=c1ccc2ccc(F)cc2n1CCN1CCC(NCc2ccc(-c3ccccn3)s2)CC1 | 890 nM
CC1(CCc2ccccc2)N=C(N)N=C(N)C1c1ccc(Cl)c(Cl)c1 (stereo not given) | 320 nM
CCOC(=O)N(C)/N=C/[C@H](CCc1ccccc1)NC(=O)[C@H](CC(C)C)NC(=O)c1cc2cccc(OC)c2o1 | 560 nM
Cc1ccc(CON2C(N)=NC(N)=NC23CCCCC3)c2ccccc12 | 70 nM
CCCNC(=O)C1CCN(C(c2ccccc2)c2ccc(Cl)c(Cl)c2)CC1 (stereo not given) | 710 nM
COc1cc2nc(N(C)Cc3cc4c(Cl)cccc4s3)nc(N)c2cc1OC | 950 nM
COc1ccc(-n2cc(C(=O)c3cc(Br)ccc3O)cc(C#N)c2=O)cc1Cl | 790 nM
CO/N=C(\C)c1ccc2c(c1)CCN(CCC1CCC(NC(=O)c3cccc(-c4noc(C)n4)c3)CC1)CC2 (stereo not given) | 240 nM
Cc1cc(N[C@@H](CC(C)C)C(=O)NCc2cccc(F)c2)nc(NCCc2ccccc2)n1 | 1080 nM
Cc1cc(C(F)(F)F)nn1-c1ccc(NC(=O)c2ccco2)cc1 | 730 nM
O=C(/C=C/c1ccc(Cl)c(Cl)c1)NCCCCCN1CCC(c2cn[nH]c2-c2ccccc2)CC1 | 1220 nM
Cc1cc2c(cc1C(F)(F)F)N(C(=O)Nc1ccc(OCCN(C)C)c(C(F)(F)F)c1)CC2 | 910 nM
O=C(Nc1cccc(-c2ccc(-c3nc4ccc(C(F)(F)F)cc4[nH]3)s2)c1)c1cccnc1 | 360 nM
CCNc1cc(C(=O)N[C@@H](Cc2ccccc2)[C@H](O)CNC2CCC(C)(C)CC2)cc(N2CCCCS2(=O)=O)c1 | 650 nM
CC(C)CC(=O)N1CCNC[C@@H]1C(=O)NCCSCc1c(F)cccc1Cl | 1200 nM
CC(C#N)Cc1ccc(-c2cnc(N)c3cc(-c4ccnc(N)n4)ccc23)cc1 (stereo not given) | 990 nM
COc1cc(CNC(=S)NN=C(C)c2ccccn2)cc(OC)c1OC | 400 nM
Cc1cccc(C(=O)NC(NC(=S)Nc2cc(Cl)ccc2Cl)C(Cl)(Cl)Cl)c1 (stereo not given) | 1270 nM
Cc1cc(-c2ccc(NC(=O)N3CCc4cc(Br)c(N5CCN(C)CC5)cc43)cc2)cc(C)n1 | 1010 nM
O=C(Nc1cccc(-c2ccc(-c3nc4ccc(C(F)(F)F)cc4[nH]3)cc2)c1)Nc1ccc(Cl)c(Cl)c1 | 890 nM
O=C(/C=C/c1ccc(-c2nc3ccc(Cl)cc3[nH]2)cc1)NCc1cccc(F)c1 | 640 nM
CC1CCC(NCc2c(O)ccc3ccccc23)CC1 (stereo not given) | 770 nM

SMILES | IC50
COCCN1CCC(CNCC(C)(C)c2nc(-c3ccc(Cl)c(O)c3)c(-c3ccncc3)[nH]2)CC1 | 750 nM
COc1cccc(C2(C)CCN(CCCCNC(=O)c3ccc(NC(=O)c4ccc(Cl)cc4)cc3)CC2)c1 | 830 nM
COc1ccc2nccc([C@@H](O)CN3CCC(NCCOc4ccc(F)cc4Cl)CC3)c2c1 | 280 nM
Cc1nnsc1C(=O)Nc1cccc(-c2ccc(-c3nc4ccccc4[nH]3)s2)c1 | 880 nM
O=C(NCCCCN1CC=C(c2ccc3c(c2OCc2ccccc2)CCCC3)CC1)c1ccc(-c2ccc(C(F)(F)F)cc2)cc1 | 300 nM
CC(C)C[C@@H](NC(=O)OC(C)(C)C)C(=O)Nc1ccc(Cc2ccc(NC(=O)[C@@H](CC(C)C)NC(=O)OC(C)(C)C)cc2)cc1 | 210 nM
CC(C)C[C@H](NC(=O)c1cc2ccccc2s1)C(=O)N[C@H]1CCN(Cc2ccc(OCCCN(C)C)c(Cl)c2)C1 | 900 nM
COc1cc([N+](=O)[O-])ccc1NC(=O)Nc1ccc(OC(F)(F)F)cc1 | 1030 nM
O=C(Cc1cn(-c2ccccc2)nc1-c1ccc(Cl)cc1)Nc1nccs1 | 1200 nM
COc1cccc(-c2ccc3ccnc(N)c3c2)c1 | 410 nM
COc1ccc(CSC2CCCCC23NC(=S)NC3=S)cc1 (stereo not given) | 850 nM
CS(=O)(=O)c1ccc(CNCc2cccc(-c3cccc(-c4nc5ccccc5[nH]4)c3)c2)cc1 | 590 nM
O=C(Nc1cccc(-c2nc3ccccc3s2)c1)c1ccccc1[N+](=O)[O-] | 770 nM
CCOc1ccc(C2CCN(CCCCNC(=O)c3ccc(NC(=O)c4ccc(Cl)cc4)cc3)CC2)c(Cl)c1 | 730 nM
NS(=O)(=O)c1ccc(CNc2ccc3ncc(-c4ccc(Cl)cc4)n3n2)cc1 | 280 nM
O=C(Nc1cccc(-c2ccc(CN3CCNCC3)cc2)c1)c1cccc(Cl)c1 | 1250 nM
CC(C)(C)C(=O)Nc1ccccc1Oc1ccc(Cl)cc1 | 10 nM
COc1cc2nc(Nc3ccc(Oc4ccccc4)cc3)nc(Nc3ccc(Oc4ccccc4)cc3)c2cc1OC | 930 nM
Cc1ccc2c(=O)c3cc(C)ccc3[nH]c2c1 | 420 nM
Cc1cccc2[nH]c(-c3cccc(-c4cccc(NC(=O)COc5ccccc5C(N)=O)c4)c3)nc12 | 160 nM
O=C(NC(CCCN1CCC2(CC1)OCc1ccccc12)c1ccc(Cl)c(Cl)c1)c1cc(C(F)(F)F)cc(C(F)(F)F)c1 (stereo not given) | 540 nM
CC(CN(C)C)C(=O)Nc1ccc(-c2csc(-c3nc4ccccc4[nH]3)c2)cc1 (stereo not given) | 1320 nM
C=CCOC(=O)N1CCC(CNCc2cccc(-c3ccc(-c4nc5ccc(C(F)(F)F)cc5[nH]4)cc3)c2)C1 (stereo not given) | 150 nM
CC(C)(C)c1ccc(-c2csc(NC(=O)CC(c3ccccc3)c3ccccc3)n2)cc1 | 1150 nM

SMILES | IC50
O=C(/C=C/c1ccc(Cl)c(Cl)c1)NCCCCCN1CCC(CCNC(=O)C2(c3ccc(Cl)cc3)CC2)CC1 | 920 nM
CCNc1cc(C(=O)N[C@@H](Cc2ccccc2)[C@H](O)CNCCc2cccc3ccccc23)cc(N2CCCC2=O)c1 | 980 nM
CCN(CC)CCNC(=O)c1ccc(N=Cc2c(O)[nH]c3ccc(S(=O)(=O)Cc4c(Cl)cccc4Cl)cc23)cc1 | 840 nM
COc1cccc(CN2CCC(CCOC(c3ccccc3)c3ccc(Cl)cc3)CC2)c1O (stereo not given) | 710 nM
FC(F)(F)c1ccc2nccc(NN=Cc3cccc(Cl)c3)c2c1 | 820 nM
COc1ccc2nc(/N=C(/N)NC(=O)Nc3ccccc3)nc(C)c2c1 | 1280 nM
COc1cc(CNC[C@@H](O)[C@H](Cc2ccccc2)NC(=O)c2cc(OC(C)C)cc(N3CCCS3(=O)=O)c2)cc(OC)c1 | 800 nM
NC(N)=Nc1nc(-c2cccc(NC(=O)NCc3cccc4ccccc34)c2)cs1 | 840 nM
O=C(Nc1cccc(-c2cccc(-c3nc4ccccc4[nH]3)c2)c1)N[C@@H]1C[C@H]1c1ccccc1 | 1070 nM and 900 nM
Cc1noc(C)c1-c1ccc2c(Nc3ccccc3C(C)(C)C)c(C(=O)NCc3ccc4c(c3)OCO4)cnc2c1 | 910 nM
O=[N+]([O-])c1cccc(CNCC2CCN(Cc3ccc4ccccc4c3)CC2)c1 | 880 nM
CCNCc1ccc(-c2cc3ncnc(Nc4ccc(OCc5cccc(F)c5)c(Cl)c4)c3s2)[nH]1 | 110 nM
CCCCOP(=O)(COc1ccc(CCN(CC(O)COc2cccc3[nH]c4ccccc4c23)CC(O)COc2cccc3[nH]c4ccccc4c23)cc1)C1CCCCC1 (stereo not given) | 940 nM
CCCc1cn2c3c(cc(C(=O)N[C@@H](Cc4ccccc4)[C@H](O)CNC4CCCCC4)cc13)N(CC)S(=O)(=O)CC2 | 80 nM
CCN1CC=C(c2c[nH]c3ccccc23)CC1 | 1030 nM
Clc1ccc(C=NNc2ccnc3ccccc23)cc1 | 720 nM
CCCC(C)Nc1nc(C)cc(N[C@@H](Cc2ccccc2)C(=O)Nc2ccc(OC)cc2)n1 (stereo not given in full) | 1120 nM
Cn1ncc2c3c(CCN4CCC(NCc5cc6c(cn5)OCC6)CC4)c(Cl)cnc3ccc21 | 880 nM
Cc1c(NCCCNCc2cc(Cl)cc(Cl)c2Cl)[nH]c2ccccc2c1=O | 310 nM
CNCC(C)(C)c1nc(-c2ccc(Cl)c(O)c2)c(-c2ccncc2)[nH]1 | 740 nM
Cc1cccc(-c2cccc(CNc3nc(NCCc4ccc(O)cc4)nc(N4CCNCC4)n3)c2)c1 | 1190 nM
CC[C@H](NC(=O)c1c(CN2CCC(N3CCCCC3)CC2)c(-c2ccccc2)nc2cc(O)ccc12)c1ccccc1 | 1370 nM
COc1ccc(OC)c(NC(=O)c2c(-c3c(F)cccc3Cl)noc2C)c1 | 700 nM
